Values quoted from earlier work, collected in patent US11420990B2, “Ruthenium complex containing alkynyl group, method of synthesizing the same and use thereof” (GUANGDONG PHARMACEUTICAL UNIVERSITY, priority 2018, dated 2022).

Test system: cancer cells
Details: background statement

[Ru+2].c1ccc(-c2ccccn2)nc1.c1ccc(-c2ccccn2)nc1.c1ccc2nc3c4cccnc4c4ncccc4c3nc2c1 [[Ru(bpy)2(dppz)]^2+]
cytotoxicity to cancer cells (in words): insignificant cytotoxicity
